Source: PMC11544888, “Sustainable Primary Cell Banking for Topical Compound Cytotoxicity Assays: Protocol Validation on Novel Biocides and Antifungals for Optimized Burn Wound Care” (European Burn Journal, 2024)
In brackets after ≈: the same amount, converted by molar mass.

What was measured:
[1] = system: adipose-derived stem cells (ASC); assay: In vitro cytotoxicity assay (CellTiter viability) in polydactyly-derived ASCs; type: cell-based, human
Description: (§1) All of the samples were prepared on the day of the assays. Each product/stock solution was diluted with CfM or CAM until the desired concentration ranges were obtained for the in vitro cytotoxicity assessments, based on OECD recommendations (i.e., with serial dilutions). The tested CLX- and HOCl-based biocides were used as received, apart from dilution with cell culture medium.
(§2) To perform the cytotoxicity assays, WCB II vials of primary cells and vials of control cell lines (i.e., HaCaT keratinocytes) were thawed and were expanded to confluency. The cells were then harvested and seeded in 24-well plates at densities of 3 × 10^3 and 6 × 10^3 cells/well. The cultures were maintained for 7 days as described previously. The test items were then dispensed in the wells of the culture plates, following dilution in CfM or CAM. […] Regarding the AR-12 antifungal compound, cytotoxicity was assessed for a concentration range of 0.27–139 µM. […]
(§3) After 48 h of cell treatment with the test items, the solutions were removed and a 10% solution of CellTiter® (Promega, Madison, WI, USA) in CfM or CAM was added in every well for assessment of cellular viability. […] The solutions were transferred to a 96-well plate and were analyzed on a Varioskan LUX 3020 spectrophotometer (ThermoFisher Scientific, Waltham, MA, USA) at 490 nm with agitation. […]

[2] = system: most medically relevant test strains of yeast; parameters: method as in PMID 27088128, PMID 27645246; conditions: cited from earlier work
HaCaT keratinocytes = assay: In vitro cytotoxicity assay (CellTiter viability) in HaCaT keratinocytes; type: cell-based, human; conditions: 48 h treatment
Description: as §1, §2, §3

[3] = system: primary dermal fibroblasts; assay: In vitro cytotoxicity assay (CellTiter viability) in polydactyly-derived primary dermal fibroblasts; type: cell-based, human
Description: All of the samples were prepared on the day of the assays. Each product/stock solution was diluted with CfM or CAM until the desired concentration ranges were obtained for the in vitro cytotoxicity assessments, based on OECD recommendations (i.e., with serial dilutions). The tested CLX- and HOCl-based biocides were used as received, apart from dilution with cell culture medium. To perform the cytotoxicity assays, WCB II vials of primary cells and vials of control cell lines (i.e., HaCaT keratinocytes) were thawed and were expanded to confluency. The cells were then harvested and seeded in 24-well plates at densities of 3 × 10^3 and 6 × 10^3 cells/well. The cultures were maintained for 7 days as described previously. The test items were then dispensed in the wells of the culture plates, following dilution in CfM or CAM. The Vashe® source was tested for cytotoxicity at final HOCl concentrations of 786-6290 μM. The Brio® source was tested for cytotoxicity at final HOCl concentrations of 596-4766 μM. The CLX source was tested for cytotoxicity at final concentrations of 0.2-1978 μM. […] The solutions were transferred to a 96-well plate and were analyzed on a Varioskan LUX 3020 spectrophotometer (ThermoFisher Scientific, Waltham, MA, USA) at 490 nm with agitation. […]

[4] = system: cultured cells (HaCaT keratinocytes, primary dermal fibroblasts, ASCs); assay: In vitro cytotoxicity model overall (cell type not given); type: cell-based, human
Description: All of the samples were prepared on the day of the assays. Each product/stock solution was diluted with CfM or CAM until the desired concentration ranges were obtained for the in vitro cytotoxicity assessments, based on OECD recommendations (i.e., with serial dilutions). The tested CLX- and HOCl-based biocides were used as received, apart from dilution with cell culture medium. To perform the cytotoxicity assays, WCB II vials of primary cells and vials of control cell lines (i.e., HaCaT keratinocytes) were thawed and were expanded to confluency. The cells were then harvested and seeded in 24-well plates at densities of 3 × 10^3 and 6 × 10^3 cells/well. The cultures were maintained for 7 days as described previously. The test items were then dispensed in the wells of the culture plates, following dilution in CfM or CAM. The Vashe® source was tested for cytotoxicity at final HOCl concentrations of 786-6290 μM. The Brio® source was tested for cytotoxicity at final HOCl concentrations of 596-4766 μM. The CLX source was tested for cytotoxicity at final concentrations of 0.2-1978 μM. […] The retained test item experimental concentrations were selected based on the OECD […] guideline and on high-throughput screening principles. After 48 h of cell treatment with the test items, the solutions were removed and a 10% solution of CellTiter® (Promega, Madison, WI, USA) in CfM or CAM was added in every well for assessment of cellular viability. The plates were then placed in the incubator for 90 min. The solutions were transferred to a 96-well plate and were analyzed on a Varioskan LUX 3020 spectrophotometer (ThermoFisher Scientific, Waltham, MA, USA) at 490 nm with agitation. Following the cytotoxicity model validation in 24-well plates, the same procedure was used for optimization and upscaling in 96-well plates. The culture plates were seeded with 5 × 10^3 cells/well (i.e., for primary cells) and 10^4 cells/well (i.e., for HaCaT keratinocytes) in a CfM volume of 100 μL per well. […]

NCC(=O)Nc1ccc(-n2nc(C(F)(F)F)cc2-c2ccc3c(ccc4ccccc43)c2)cc1 [AR-12]
cytotoxicity values [1]: 4 to 8 µg/mL | MIC [2]: 8 µM (≈ 3.68 µg/mL) | IC50 (HaCaT keratinocytes): 9.96 ± 0.35 µM | cytotoxicity values [3]: 4 to 8 µg/mL | IC50 ([3]; 48 h treatment, CellTiter viability): 10.7 ± 0.27 µM

[H]/N=C(\N/C(=N/[H])NCCCCCCNC(=N)NC(=N)Nc1ccc(Cl)cc1)Nc1ccc(Cl)cc1 [CLX, chlorhexidine]
dilution needed to avoid toxicity in cultured cells ([4]; human, 48 h): 10- and 100

OCl [HOCl, hypochlorous acid]
comparative in vitro cytotoxicity ([4]; Figures 4-6): less toxicity than CLX | dose showing in vitro cytotoxicity ([4]; in vitro data gathered herein, 50 times lower than 100–200 ppm in-use doses): 4 µg/mL
